Activity calls are given as the source filed them. The rule behind the calls is not given here.
Tested on: CCRIS mutagenicity, Ames/micronucleus/aberration tests
Test: CCRIS mutagenicity studies
[1] = Test System: AMES SALMONELLA TYPHIMURIUM, Strain/Indicator: TA98, Metabolic Activation: NONE, Method: PREINCUBATION
[2] = Test System: AMES SALMONELLA TYPHIMURIUM, Strain/Indicator: TA98, Metabolic Activation: NONE, Method: STANDARD PLATE
[3] = Test System: AMES SALMONELLA TYPHIMURIUM, Strain/Indicator: TA100, Metabolic Activation: NONE, Method: STANDARD PLATE
[4] = Test System: AMES SALMONELLA TYPHIMURIUM, Strain/Indicator: TA100, Metabolic Activation: RAT, LIVER, S-9, AROCLOR 1254, Method: STANDARD PLATE
[5] = Test System: AMES SALMONELLA TYPHIMURIUM, Strain/Indicator: TA98, Metabolic Activation: RAT, LIVER, S-9, AROCLOR 1254, Method: STANDARD PLATE
[6] = Test System: AMES SALMONELLA TYPHIMURIUM, Strain/Indicator: TA1535, Metabolic Activation: NONE, Method: STANDARD PLATE
[7] = Test System: AMES SALMONELLA TYPHIMURIUM, Strain/Indicator: TA1535, Metabolic Activation: RAT, LIVER, S-9, AROCLOR 1254, Method: STANDARD PLATE
[8] = Test System: AMES SALMONELLA TYPHIMURIUM, Strain/Indicator: TA1537, Metabolic Activation: NONE, Method: STANDARD PLATE
[9] = Test System: AMES SALMONELLA TYPHIMURIUM, Strain/Indicator: TA1537, Metabolic Activation: RAT, LIVER, S-9, AROCLOR 1254, Method: STANDARD PLATE
[10] = Test System: AMES SALMONELLA TYPHIMURIUM, Strain/Indicator: TA100, Metabolic Activation: NONE, Method: PREINCUBATION

Structure (SMILES): O=[N+]([O-])c1cc([N+](=O)[O-])c2ccc3cccc4ccc1c2c43
- mutagenic call (End Point: IN VITRO CHROMOSOMAL ABERRATIONS, Test System: CHINESE HAMSTER LUNG (CHL) CELLS, Metabolic Activation: NONE): active; positive
- mutagenic call (End Point: IN VITRO CHROMOSOMAL ABERRATIONS, Test System: CHINESE HAMSTER LUNG (CHL) CELLS, Metabolic Activation: RAT, LIVER, S-9, KC-400): active; positive
- mutagenic call (Test System: AMES SALMONELLA TYPHIMURIUM, Strain/Indicator: TA98 (1,8-DNP6), Metabolic Activation: NONE, Method: STANDARD PLATE): active; positive
- mutagenic call (Test System: AMES SALMONELLA TYPHIMURIUM, Strain/Indicator: TA98 (NR), Metabolic Activation: NONE, Method: STANDARD PLATE): active; positive
- mutagenic call [1]: active; positive
- mutagenic call [2]: active; positive
- mutagenic call (Test System: AMES SALMONELLA TYPHIMURIUM, Strain/Indicator: TA98, Metabolic Activation: RAT, LIVER, S-9, PCB (10%), Method: PREINCUBATION): inactive; negative
- mutagenic call [3]: active; positive
- mutagenic call (Test System: AMES SALMONELLA TYPHIMURIUM, Strain/Indicator: TA100, Metabolic Activation: RAT, LIVER, CYTOSOL, AROCLOR 1254, Method: STANDARD PLATE): active; positive
- mutagenic call (Test System: AMES SALMONELLA TYPHIMURIUM, Strain/Indicator: TA100, Metabolic Activation: RAT, LIVER, CYTOSOL, Method: STANDARD PLATE): active; positive
- mutagenic call (Test System: AMES SALMONELLA TYPHIMURIUM, Strain/Indicator: TA100, Metabolic Activation: RAT, LIVER, MICROSOMES, AROCLOR 1254, Method: STANDARD PLATE): active; positive
- mutagenic call (Test System: AMES SALMONELLA TYPHIMURIUM, Strain/Indicator: TA100, Metabolic Activation: RAT, LIVER, MICROSOMES, Method: STANDARD PLATE): active; positive
- mutagenic call [4]: inactive; negative
- mutagenic call (Test System: AMES SALMONELLA TYPHIMURIUM, Strain/Indicator: TA100, Metabolic Activation: RAT, LIVER, S-9, Method: STANDARD PLATE): active; positive
- mutagenic call (Test System: AMES SALMONELLA TYPHIMURIUM, Strain/Indicator: TA7001, Metabolic Activation: NONE, Method: PREINCUBATION): active; positive
- mutagenic call (Test System: AMES SALMONELLA TYPHIMURIUM, Strain/Indicator: TA7002, Metabolic Activation: NONE, Method: PREINCUBATION): active; positive
- mutagenic call (Test System: AMES SALMONELLA TYPHIMURIUM, Strain/Indicator: TA7003, Metabolic Activation: NONE, Method: PREINCUBATION): active; positive
- mutagenic call (Test System: AMES SALMONELLA TYPHIMURIUM, Strain/Indicator: TA7004, Metabolic Activation: NONE, Method: PREINCUBATION): active; positive
- mutagenic call (Test System: AMES SALMONELLA TYPHIMURIUM, Strain/Indicator: TA7005, Metabolic Activation: NONE, Method: PREINCUBATION): active; positive
- mutagenic call (Test System: AMES SALMONELLA TYPHIMURIUM, Strain/Indicator: TA7006, Metabolic Activation: NONE, Method: PREINCUBATION): active; positive
- mutagenic call (Test System: UDS HUMAN HEPATOMA CELLS, Strain/Indicator: HEPG2/THY INCORP, Metabolic Activation: NONE): inactive; negative

Structure (SMILES): Nc1ccc(N=Nc2ccc(N)cc2)cc1
- mutagenic call (Test System: AMES SALMONELLA TYPHIMURIUM, Strain/Indicator: TA98, Metabolic Activation: HAMSTER, LIVER, S-9, AROCLOR 1254, Method: STANDARD PLATE): active; positive
- mutagenic call [2]: inactive; negative
- mutagenic call (Test System: AMES SALMONELLA TYPHIMURIUM, Strain/Indicator: TA98, Metabolic Activation: RAT, LIVER, S-9, AROCLOR 1254, Method: PREINCUBATION): active; positive
- mutagenic call [5]: active; positive
- mutagenic call [3]: inactive; negative
- mutagenic call [4]: inactive; negative
- mutagenic call [6]: inactive; negative
- mutagenic call [7]: inactive; negative
- mutagenic call [8]: inactive; negative
- mutagenic call [9]: inactive; negative
- mutagenic call (Test System: AMES SALMONELLA TYPHIMURIUM, Strain/Indicator: TA1538, Metabolic Activation: NONE, Method: STANDARD PLATE): inactive; negative
- mutagenic call (Test System: AMES SALMONELLA TYPHIMURIUM, Strain/Indicator: TA1538, Metabolic Activation: RAT, LIVER, S-9, AROCLOR 1254, Method: STANDARD PLATE): active; positive

Structure (SMILES): CC(=O)O[C@H]1C[C@@H]2C(COC(=O)CC(C)C)=CO[C@@H](OC(=O)CC(C)C)[C@@H]2[C@@]12CO2
- mutagenic call [2]: inactive; negative
- mutagenic call [5]: inactive; negative
- mutagenic call [3]: inactive; negative
- mutagenic call [4]: active; positive
- mutagenic call [6]: inactive; negative
- mutagenic call [7]: inactive; negative
- mutagenic call [8]: inactive; negative
- mutagenic call [9]: inactive; negative
- mutagenic call (Test System: E. COLI, Strain/Indicator: WP2, Metabolic Activation: NONE, Method: STANDARD PLATE): inactive; negative
- mutagenic call (Test System: E. COLI, Strain/Indicator: WP2, Metabolic Activation: RAT, LIVER, S-9, AROCLOR 1254, Method: STANDARD PLATE): active; positive
- mutagenic call (Test System: E. COLI, Strain/Indicator: WP2 UVRA, Metabolic Activation: NONE, Method: STANDARD PLATE): active; positive
- mutagenic call (Test System: E. COLI, Strain/Indicator: WP2 UVRA, Metabolic Activation: RAT, LIVER, S-9, AROCLOR 1254, Method: STANDARD PLATE): active; positive

Structure (SMILES): NCCc1c[nH]c2ccc(O)cc12
- mutagenic call [10]: inactive; negative

Structure (SMILES): O=C1CSC(=S)N1
- mutagenic call (Test System: AMES SALMONELLA TYPHIMURIUM, Strain/Indicator: TA98, Metabolic Activation: HAMSTER, LIVER, S-9, AROCLOR 1254 (10%), Method: PREINCUBATION): inactive; negative
- mutagenic call [1]: inactive; negative
- mutagenic call (Test System: AMES SALMONELLA TYPHIMURIUM, Strain/Indicator: TA98, Metabolic Activation: RAT, LIVER, S-9, AROCLOR 1254 (10%), Method: PREINCUBATION): inactive; negative
- mutagenic call (Test System: AMES SALMONELLA TYPHIMURIUM, Strain/Indicator: TA100, Metabolic Activation: HAMSTER, LIVER, S-9, AROCLOR 1254 (10%), Method: PREINCUBATION): inactive; negative
- mutagenic call [10]: inactive; negative
- mutagenic call (Test System: AMES SALMONELLA TYPHIMURIUM, Strain/Indicator: TA100, Metabolic Activation: RAT, LIVER, S-9, AROCLOR 1254 (10%), Method: PREINCUBATION): inactive; negative
- mutagenic call (Test System: AMES SALMONELLA TYPHIMURIUM, Strain/Indicator: TA1535, Metabolic Activation: HAMSTER, LIVER, S-9, AROCLOR 1254 (10%), Method: PREINCUBATION): inactive; negative
- mutagenic call (Test System: AMES SALMONELLA TYPHIMURIUM, Strain/Indicator: TA1535, Metabolic Activation: NONE, Method: PREINCUBATION): inactive; negative
- mutagenic call (Test System: AMES SALMONELLA TYPHIMURIUM, Strain/Indicator: TA1535, Metabolic Activation: RAT, LIVER, S-9, AROCLOR 1254 (10%), Method: PREINCUBATION): inactive; negative
- mutagenic call (Test System: AMES SALMONELLA TYPHIMURIUM, Strain/Indicator: TA1537, Metabolic Activation: HAMSTER, LIVER, S-9, AROCLOR 1254 (10%), Method: PREINCUBATION): inactive; negative
- mutagenic call (Test System: AMES SALMONELLA TYPHIMURIUM, Strain/Indicator: TA1537, Metabolic Activation: NONE, Method: PREINCUBATION): inactive; negative
- mutagenic call (Test System: AMES SALMONELLA TYPHIMURIUM, Strain/Indicator: TA1537, Metabolic Activation: RAT, LIVER, S-9, AROCLOR 1254 (10%), Method: PREINCUBATION): inactive; negative

Structure (SMILES): [N-]=[N+]=NC[C@H]1O[C@H](O)[C@@H](O)[C@H](O)[C@@H]1O
- mutagenic call [2]: inactive; negative
- mutagenic call [3]: active; positive

— PubChem BioAssay AID1259407 (Chemical Carcinogenesis Research Information System (CCRIS), 2018)
